In patent US12496329B2, “Methods of using and compositions including an incretin analog” (Eli Lilly and Company, priority 2021, dated 2025):
Like-named read-outs stand apart in the source and are kept apart here.

Experiment: SAD study: plasma pharmacokinetics after a single SC dose
Format: in vivo
Conditions: both sexes, human
Excerpt: Studies are designed to evaluate the safety, tolerability, pharmacodynamics (PD) and pharmacokinetics (PK) of the GGG tri-receptor agonist (SEQ ID NO:1) in healthy individuals. The SAD study is a randomized, investigator- and participant-blind, placebo-controlled, single-dose, single-site, dose-escalation study conducted in healthy individuals (e.g., overtly healthy females or males aged 21-65 years, inclusive, with a BMI 19-40 kg/m^2 at screening).
Six dose levels of the GGG tri-receptor agonist-0.1, 0.3, 1.0, 3.0, 4.5 and 6.0 mg—are explored in the SAD study, as well as placebo (i.e., 0.0 mg). A dose escalation of the GGG tri-receptor agonist is assessed in cohorts of healthy individuals (e.g., 6 individuals receiving the GGG tri-receptor agonist and 2 individuals receiving placebo per cohort). Staggered dosing is performed for each cohort, in which a new higher dose of the GGG tri-receptor agonist is administered. All injections are administered into the SC tissue of an abdominal wall, in a right or left lower quadrant.
Blood samples are collected pre-dose and at 4 hours (hr), 10 hr, 14 hr, 24 hr (Day 1), 48 hr (Day 2), 72 hr (Day 3), 96 hr (Day 4), 120 hr ([…]), 168 hr (Day 7), 336 hr (Day 14), 672 hr (Day 28) and 1008 hr (Day 42) post-dose to determine plasma concentration of the GGG tri-receptor agonist. Plasma concentrations are used to compute PK parameters using standard non-compartmental methods in a validated software program (Phoenix WinNonlin Version 8.1).
Bioanalytical methods: plasma samples are analyzed at Q2 Solutions (Ithaca, NY). The samples are analyzed for the GGG tri-receptor agonist using a validated liquid chromatography high resolution mass spectrometry method. The lower limit of quantification is 1.00 ng/mL and the upper limit of quantification is 500.00 ng/ml. Samples above a limit of quantification are diluted and reanalyzed to yield results within the calibrated range. The intra-assay accuracy (% relative error) during validation ranges from −6.3% to 15.7%. The intra-assay precision (% relative standard deviation) during validation is ≤14.7%. The GGG tri-receptor agonist is stable for up to 96 days when stored at about-20° C. and about −70° C.
Actual sampling times are used in the calculation of all PK parameters and concentration versus time profiles.
Concentration values below the quantifiable lower limit of the assay are excluded from the calculation of PK parameters, except for those prior to the first measurable concentration, which are set to a value of 0.
A concentration average is plotted for a given sample if two thirds of the individual data at the time point have quantifiable measurements. Concentrations at sampling times exceeding ±10% of the scheduled time ware excluded from the average concentration profiles.

In the case of `CC[C@H](C)[C@H](NC(=O)[C@H](Cc1ccccc1)NC(=O)[C@H](C)NC(=O)C(C)(C)NC(=O)[C@H](CCC(N)=O)NC(=O)[C@H](C)NC(=O)[C@H](CCCCNC(=O)COCCOCCNC(=O)CC[C@H](NC(=O)CCCCCCCCCCCCCCCCCCC(=O)O)C(=O)O)NC(=O)[C@H](CCCCN)NC(=O)[C@H](CC(=O)O)NC(=O)[C@H](CC(C)C)NC(=O)[C@](C)(CC(C)C)NC(=O)[C@@H](NC(=O)[C@H](CO)NC(=O)[C@H](Cc1ccc(O)cc1)NC(=O)[C@H](CC(=O)O)NC(=O)[C@H](CO)NC(=O)[C@@H](NC(=O)[C@H](Cc1ccccc1)NC(=O)[C@@H](NC(=O)CNC(=O)[C@H](CCC(N)=O)NC(=O)C(C)(C)NC(=O)[C@@H](N)Cc1ccc(O)cc1)[C@@H](C)O)[C@@H](C)O)[C@@H](C)CC)C(=O)N[C@@H](CCC(=O)O)C(=O)N[C@@H](Cc1ccc(O)cc1)C(=O)N[C@@H](CC(C)C)C(=O)N[C@@H](CC(C)C)C(=O)N[C@@H](CCC(=O)O)C(=O)NCC(=O)NCC(=O)N1CCC[C@H]1C(=O)N[C@@H](CO)C(=O)N[C@@H](CO)C(=O)NCC(=O)N[C@@H](C)C(=O)N1CCC[C@H]1C(=O)N1CCC[C@H]1C(=O)N1CCC[C@H]1C(=O)N[C@@H](CO)C(N)=O` [GGG tri-receptor agonist, Y-Aib-QGTFTSDYSI-αMeL-LDKK((2-[2-(2-amino-ethoxy)-ethoxy]-acetyl)-(γGlu)-CO-(CH2)18-CO2H)AQ-Aib-AFIEYLLEGGPSSGAPPPS-NH2], the AUC(0-inf) (0.1 mg single SC dose) is reported as 3750 ng·h/mL, the CL/F (0.1 mg single SC dose) is reported as 0.445 mL/min and the Cmax (0.1 mg single SC dose) is reported as 11 ng/mL. For the same compound, the Tmax (0.1 mg single SC dose) was 72 h, the AUC(0-inf) (0.3 mg single SC dose) was 10300 ng·h/mL and the CL/F (0.3 mg single SC dose) was 0.485 mL/min. It also gave a Cmax (0.3 mg single SC dose) of 44.8 ng/mL, a Tmax (0.3 mg single SC dose) of 72.2 h and an AUC(0-inf) (1.0 mg single SC dose) of 28300 ng·h/mL. It also gave a CL/F (1.0 mg single SC dose) of 0.59 mL/min, a Cmax (1.0 mg single SC dose) of 110 ng/mL and a Tmax (1.0 mg single SC dose) of 48 h. For the same compound, the AUC(0-inf) (3.0 mg single SC dose) was 69100 ng·h/mL, the CL/F (3.0 mg single SC dose) was 0.723 mL/min and the Cmax (3.0 mg single SC dose) was 251 ng/mL. It also gave a Tmax (3.0 mg single SC dose) of 14 h, an AUC(0-inf) (4.5 mg single SC dose) of 130000 ng·h/mL and a CL/F (4.5 mg single SC dose) of 0.577 mL/min. For the same compound, the Cmax (4.5 mg single SC dose) was 589 ng/mL, the Tmax (4.5 mg single SC dose) was 12 h and the AUC(0-inf) (6.0 mg single SC dose) was 150000 ng·h/mL. The CL/F (6.0 mg single SC dose) was 0.668 mL/min, the Cmax (6.0 mg single SC dose) was 635 ng/mL and the Tmax (6.0 mg single SC dose) was 24 h. It also gave a half-life (sc, 0.1 mg, 0.1 mg single SC dose, read-out: t½ (converted)) of 165 h, a half-life (sc, 0.3 mg, 0.3 mg single SC dose, read-out: t½ (converted)) of 139 h and a half-life (sc, 1 mg, 1.0 mg single SC dose, read-out: t½ (converted)) of 134 h. The half-life (sc, 3 mg, 3.0 mg single SC dose, read-out: t½ (converted)) was 134 h, the half-life (sc, 4.5 mg, 4.5 mg single SC dose, read-out: t½ (converted)) was 163 h and the half-life (sc, 6 mg, 6.0 mg single SC dose, read-out: t½ (converted)) was 149 h. For the same compound, the half-life (subcutaneous, single dose, read-out: mean terminal t½) was 120 to 168 h.
